Drawing on ChEMBL document CHEMBL3352351 (Bioorg Med Chem, 2014), this text covers IC50 for one compound.

Molecules are shown by their SMILES.

Broadly, the IC50 is the concentration that inhibits the measured activity by half. A higher IC50 goes with a need for much substance.

The nature of assay [1]: Cytotoxicity against human H460 cells after 72 hrs by MTT assay. Particulars: NCI-H460, 72 h.
Assay [2] concerns the target Mast/stem cell growth factor receptor Kit (Homo sapiens, UniProt P10721). Kind of assay: Inhibition of c-Kit (unknown origin) using poly (Glu, Tyr) 4:1 substrate incubated for 30 mins by HTRF assay. For orientation: TR-FRET usually uses a lanthanide donor and a delayed reading to cut background.
The target in assay [3] is Platelet-derived growth factor receptor beta (Homo sapiens, UniProt P09619). The assay is described as follows: Inhibition of PDGFRbeta (unknown origin) using poly (Glu, Tyr) 4:1 substrate incubated for 30 mins by HTRF assay.
The nature of assay [4]: Cytotoxicity against human U87MG cells after 72 hrs by MTT assay. In kind it is functional, cell-based, U-87MG ATCC. The following applies: U-87 MG. Background: Tetrazolium assays rely on reduction of a dye to a coloured formazan, in cell work by metabolically active cells.
Another assay has as its system HT-29. Kind of assay: Cytotoxicity against human HT-29 cells after 72 hrs by MTT assay. The following applies: HT-29, 72 h.
Assay [5] concerns the target Vascular endothelial growth factor receptor 2 (Homo sapiens, UniProt P35968). The assay is described as follows: Inhibition of KDR (unknown origin) using poly (Glu, Tyr) 4:1 substrate incubated for 30 mins by HTRF assay.
The target of assay [6] is Hepatocyte growth factor receptor (Homo sapiens, UniProt P08581). The assay is described as follows: Inhibition of c-Met (unknown origin) using poly (Glu, Tyr) 4:1 substrate incubated for 30 mins by HTRF assay.
A short description of assay [7]: Cytotoxicity against human MKN45 cells after 72 hrs by MTT assay. Particulars: MKN-45, 72 h.
Assay [8] has as its target T1, Receptor-type tyrosine-protein kinase FLT3 (Homo sapiens, UniProt P36888).
T1 sequence (P36888 whole entry): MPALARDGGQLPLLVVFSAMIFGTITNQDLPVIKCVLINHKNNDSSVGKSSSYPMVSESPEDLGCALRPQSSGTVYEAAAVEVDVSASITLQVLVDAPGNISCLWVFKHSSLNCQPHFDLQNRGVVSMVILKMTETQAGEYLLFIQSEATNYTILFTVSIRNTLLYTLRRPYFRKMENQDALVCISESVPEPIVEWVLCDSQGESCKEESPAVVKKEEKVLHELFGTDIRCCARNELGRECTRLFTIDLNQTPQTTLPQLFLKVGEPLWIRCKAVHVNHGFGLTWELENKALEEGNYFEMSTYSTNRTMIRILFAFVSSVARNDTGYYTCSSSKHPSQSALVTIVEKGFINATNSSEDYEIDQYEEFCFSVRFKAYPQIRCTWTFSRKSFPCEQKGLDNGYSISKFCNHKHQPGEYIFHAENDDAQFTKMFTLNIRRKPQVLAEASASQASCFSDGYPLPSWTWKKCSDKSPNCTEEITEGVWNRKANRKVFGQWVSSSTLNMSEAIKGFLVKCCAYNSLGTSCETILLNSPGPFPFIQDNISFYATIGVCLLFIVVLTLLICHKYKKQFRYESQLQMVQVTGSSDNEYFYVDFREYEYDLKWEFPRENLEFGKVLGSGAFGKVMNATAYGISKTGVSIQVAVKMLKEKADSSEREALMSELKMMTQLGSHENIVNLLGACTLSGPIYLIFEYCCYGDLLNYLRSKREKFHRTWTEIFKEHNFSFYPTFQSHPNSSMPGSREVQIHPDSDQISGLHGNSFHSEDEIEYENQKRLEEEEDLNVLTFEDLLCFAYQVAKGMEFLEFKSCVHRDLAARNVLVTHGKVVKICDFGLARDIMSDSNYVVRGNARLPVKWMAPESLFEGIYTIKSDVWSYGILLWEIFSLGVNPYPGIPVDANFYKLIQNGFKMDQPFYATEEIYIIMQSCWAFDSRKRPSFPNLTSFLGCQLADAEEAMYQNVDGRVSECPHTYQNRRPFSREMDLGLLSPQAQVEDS
The assay is described as follows: Inhibition of FLT3 (unknown origin) using poly (Glu, Tyr) 4:1 substrate incubated for 30 mins by HTRF assay.

For a further assay, the system named is A549. The assay is described as follows: Cytotoxicity against human A549 cells after 72 hrs by MTT assay. Particulars: A549, 72 h.
Assay [9] concerns the target Epidermal growth factor receptor (Homo sapiens, UniProt P00533). The assay is described as follows: Inhibition of EGFR (unknown origin) using poly (Glu, Tyr) 4:1 substrate incubated for 30 mins by HTRF assay.

Sequence of Epidermal growth factor receptor (P00533 whole entry): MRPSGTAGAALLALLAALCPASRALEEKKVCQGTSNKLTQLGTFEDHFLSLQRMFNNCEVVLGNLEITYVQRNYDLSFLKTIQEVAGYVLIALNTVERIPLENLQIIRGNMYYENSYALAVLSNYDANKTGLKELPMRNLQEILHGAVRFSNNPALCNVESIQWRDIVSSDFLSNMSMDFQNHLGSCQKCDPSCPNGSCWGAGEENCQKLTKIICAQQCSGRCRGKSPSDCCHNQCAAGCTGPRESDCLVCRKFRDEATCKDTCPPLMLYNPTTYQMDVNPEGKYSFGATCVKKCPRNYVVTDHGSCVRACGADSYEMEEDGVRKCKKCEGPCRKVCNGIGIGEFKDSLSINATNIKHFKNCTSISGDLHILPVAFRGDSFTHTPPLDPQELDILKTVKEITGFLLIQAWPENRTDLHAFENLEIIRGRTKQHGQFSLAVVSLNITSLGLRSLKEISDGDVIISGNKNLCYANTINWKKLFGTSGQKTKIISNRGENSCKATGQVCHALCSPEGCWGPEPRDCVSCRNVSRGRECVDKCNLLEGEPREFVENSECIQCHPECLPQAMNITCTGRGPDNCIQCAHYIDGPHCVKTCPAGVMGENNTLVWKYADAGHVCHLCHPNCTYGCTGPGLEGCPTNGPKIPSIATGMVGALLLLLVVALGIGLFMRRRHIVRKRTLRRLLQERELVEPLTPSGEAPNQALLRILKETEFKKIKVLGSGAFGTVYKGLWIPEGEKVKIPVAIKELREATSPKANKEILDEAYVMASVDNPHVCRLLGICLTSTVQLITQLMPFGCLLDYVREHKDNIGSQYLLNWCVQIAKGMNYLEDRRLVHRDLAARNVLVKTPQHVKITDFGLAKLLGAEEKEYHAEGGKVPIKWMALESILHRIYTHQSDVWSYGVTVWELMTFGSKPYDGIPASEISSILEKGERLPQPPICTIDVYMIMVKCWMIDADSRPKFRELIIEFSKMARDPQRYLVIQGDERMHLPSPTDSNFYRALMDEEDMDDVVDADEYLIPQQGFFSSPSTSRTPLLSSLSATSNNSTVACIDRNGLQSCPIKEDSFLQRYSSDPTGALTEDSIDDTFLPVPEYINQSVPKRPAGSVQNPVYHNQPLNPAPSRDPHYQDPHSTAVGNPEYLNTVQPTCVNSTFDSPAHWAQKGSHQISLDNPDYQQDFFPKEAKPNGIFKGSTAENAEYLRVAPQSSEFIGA
Sequence of Mast/stem cell growth factor receptor Kit (P10721 whole entry): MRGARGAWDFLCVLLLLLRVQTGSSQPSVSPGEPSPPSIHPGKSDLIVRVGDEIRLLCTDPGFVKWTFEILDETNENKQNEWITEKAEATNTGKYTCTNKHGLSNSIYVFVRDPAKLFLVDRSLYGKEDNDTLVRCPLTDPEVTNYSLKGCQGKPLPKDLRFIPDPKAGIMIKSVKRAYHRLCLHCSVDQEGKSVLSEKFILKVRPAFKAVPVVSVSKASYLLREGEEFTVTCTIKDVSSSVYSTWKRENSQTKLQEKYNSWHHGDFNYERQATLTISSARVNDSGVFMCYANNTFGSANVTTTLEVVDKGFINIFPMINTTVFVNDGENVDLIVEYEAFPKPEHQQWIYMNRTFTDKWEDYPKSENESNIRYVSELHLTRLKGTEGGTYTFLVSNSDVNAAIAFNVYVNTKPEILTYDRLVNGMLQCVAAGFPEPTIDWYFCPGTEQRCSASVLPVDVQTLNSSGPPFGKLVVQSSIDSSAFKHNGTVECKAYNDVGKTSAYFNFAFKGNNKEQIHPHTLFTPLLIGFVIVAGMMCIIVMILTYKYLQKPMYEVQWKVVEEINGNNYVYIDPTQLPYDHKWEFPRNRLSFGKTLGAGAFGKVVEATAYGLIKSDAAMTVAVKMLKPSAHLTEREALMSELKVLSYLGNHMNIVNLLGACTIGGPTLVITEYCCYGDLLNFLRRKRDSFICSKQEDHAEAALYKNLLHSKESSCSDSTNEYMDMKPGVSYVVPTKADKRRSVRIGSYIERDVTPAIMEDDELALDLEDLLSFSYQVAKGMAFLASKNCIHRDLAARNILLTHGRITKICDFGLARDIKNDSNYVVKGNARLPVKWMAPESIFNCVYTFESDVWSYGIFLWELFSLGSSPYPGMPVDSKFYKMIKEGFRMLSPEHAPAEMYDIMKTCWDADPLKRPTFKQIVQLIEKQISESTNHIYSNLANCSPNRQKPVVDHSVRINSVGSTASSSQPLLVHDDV
Sequence of Vascular endothelial growth factor receptor 2 (P35968 whole entry): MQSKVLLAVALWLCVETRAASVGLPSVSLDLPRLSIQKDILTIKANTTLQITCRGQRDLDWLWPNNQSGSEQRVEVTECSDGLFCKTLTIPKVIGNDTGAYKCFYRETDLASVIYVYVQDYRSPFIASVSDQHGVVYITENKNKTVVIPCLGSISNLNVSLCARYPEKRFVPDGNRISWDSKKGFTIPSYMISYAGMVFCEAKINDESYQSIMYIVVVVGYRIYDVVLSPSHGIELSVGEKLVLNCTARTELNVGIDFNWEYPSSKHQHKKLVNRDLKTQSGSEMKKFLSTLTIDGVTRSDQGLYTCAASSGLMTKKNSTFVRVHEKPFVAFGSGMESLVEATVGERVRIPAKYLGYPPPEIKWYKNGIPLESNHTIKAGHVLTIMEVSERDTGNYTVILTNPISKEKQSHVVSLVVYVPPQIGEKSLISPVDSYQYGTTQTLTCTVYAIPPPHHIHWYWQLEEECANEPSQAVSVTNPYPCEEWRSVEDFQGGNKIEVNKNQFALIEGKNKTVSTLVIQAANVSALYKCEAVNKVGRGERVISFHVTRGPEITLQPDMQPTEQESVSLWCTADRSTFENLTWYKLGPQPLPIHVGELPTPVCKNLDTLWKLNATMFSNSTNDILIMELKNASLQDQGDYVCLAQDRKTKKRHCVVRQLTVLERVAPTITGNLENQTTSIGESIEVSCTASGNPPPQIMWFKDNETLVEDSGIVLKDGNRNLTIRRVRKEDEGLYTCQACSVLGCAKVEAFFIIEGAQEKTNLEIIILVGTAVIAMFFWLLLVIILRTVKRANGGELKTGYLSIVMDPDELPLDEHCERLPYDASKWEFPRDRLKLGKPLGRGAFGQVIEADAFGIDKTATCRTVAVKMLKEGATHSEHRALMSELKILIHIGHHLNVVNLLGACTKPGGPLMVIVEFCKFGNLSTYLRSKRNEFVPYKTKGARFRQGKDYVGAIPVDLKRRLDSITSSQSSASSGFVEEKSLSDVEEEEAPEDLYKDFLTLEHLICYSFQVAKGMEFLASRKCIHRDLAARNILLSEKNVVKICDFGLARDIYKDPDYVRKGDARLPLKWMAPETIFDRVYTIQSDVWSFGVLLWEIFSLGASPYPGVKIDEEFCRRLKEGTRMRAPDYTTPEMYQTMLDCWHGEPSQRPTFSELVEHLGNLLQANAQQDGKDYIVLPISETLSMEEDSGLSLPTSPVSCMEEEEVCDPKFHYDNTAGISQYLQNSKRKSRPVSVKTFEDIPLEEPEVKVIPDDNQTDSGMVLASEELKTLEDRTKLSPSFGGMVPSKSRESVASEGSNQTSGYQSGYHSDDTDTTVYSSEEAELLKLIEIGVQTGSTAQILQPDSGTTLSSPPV
Sequence of Hepatocyte growth factor receptor (P08581 whole entry): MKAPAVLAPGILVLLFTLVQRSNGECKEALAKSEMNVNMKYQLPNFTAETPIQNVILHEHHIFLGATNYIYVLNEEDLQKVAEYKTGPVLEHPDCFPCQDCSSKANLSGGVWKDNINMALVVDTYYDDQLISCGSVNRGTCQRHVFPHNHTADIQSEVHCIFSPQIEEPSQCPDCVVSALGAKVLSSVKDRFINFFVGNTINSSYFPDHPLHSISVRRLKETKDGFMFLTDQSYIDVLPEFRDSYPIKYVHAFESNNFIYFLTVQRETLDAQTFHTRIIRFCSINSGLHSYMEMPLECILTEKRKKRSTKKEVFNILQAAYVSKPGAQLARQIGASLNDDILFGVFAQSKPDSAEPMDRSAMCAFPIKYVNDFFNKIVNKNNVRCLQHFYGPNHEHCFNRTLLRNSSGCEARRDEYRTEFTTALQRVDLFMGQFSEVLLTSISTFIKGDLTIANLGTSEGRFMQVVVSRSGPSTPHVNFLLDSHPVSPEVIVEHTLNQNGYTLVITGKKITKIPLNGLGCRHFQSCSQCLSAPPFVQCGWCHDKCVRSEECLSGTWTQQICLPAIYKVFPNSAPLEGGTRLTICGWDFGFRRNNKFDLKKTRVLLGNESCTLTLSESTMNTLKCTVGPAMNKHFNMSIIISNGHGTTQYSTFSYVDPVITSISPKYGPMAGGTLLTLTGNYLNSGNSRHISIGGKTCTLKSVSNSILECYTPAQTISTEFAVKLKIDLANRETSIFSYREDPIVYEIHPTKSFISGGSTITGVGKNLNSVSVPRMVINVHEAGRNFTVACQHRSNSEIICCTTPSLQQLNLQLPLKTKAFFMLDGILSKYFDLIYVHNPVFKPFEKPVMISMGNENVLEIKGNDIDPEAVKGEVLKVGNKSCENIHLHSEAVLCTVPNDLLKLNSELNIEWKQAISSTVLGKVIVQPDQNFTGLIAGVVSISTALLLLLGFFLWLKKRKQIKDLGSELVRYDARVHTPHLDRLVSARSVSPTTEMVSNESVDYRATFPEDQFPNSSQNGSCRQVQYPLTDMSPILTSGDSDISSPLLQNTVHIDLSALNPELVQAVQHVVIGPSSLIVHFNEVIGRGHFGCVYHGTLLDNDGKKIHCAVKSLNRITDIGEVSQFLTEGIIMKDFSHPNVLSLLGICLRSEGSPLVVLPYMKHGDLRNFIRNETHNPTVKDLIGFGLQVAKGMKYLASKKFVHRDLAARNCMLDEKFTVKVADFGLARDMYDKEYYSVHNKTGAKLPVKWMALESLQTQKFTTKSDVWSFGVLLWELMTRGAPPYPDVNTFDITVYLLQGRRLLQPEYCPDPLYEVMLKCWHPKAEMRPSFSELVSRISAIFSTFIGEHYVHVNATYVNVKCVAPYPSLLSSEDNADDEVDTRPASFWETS

As for `COc1cc2c(Oc3ccc(NC(=O)c4nnn(-c5ccc(F)cc5)c4C(F)(F)F)cc3F)ccnc2cc1OCCCN1CCCC1`, the IC50 in assay [1] worked out at 150 nM; in assay [2], 4.02 nM; in assay [3], 16.3 nM; in [4] it was 850 nM; in the assay on HT-29 it was 120 nM; in assay [5], 65.4 nM. Moreover, the IC50 in assay [6] was 1.04 nM; in assay [7] it was 21 nM; in assay [8], 8.78 nM; in the assay with A549 it was 80 nM; in assay [9] it was above 10000 nM.
